Values quoted from earlier work in patent US7687082B2, “Complementary compositions to reduce blood glucose levels and treat diabetes” (Astrum Therapeutics Pty. Ltd., priority 2005, dated 2010).
Like-named read-outs stand apart in the source and are kept apart here.

Experiments:
humans [1] = conditions: compared to baseline
[2] = target: T1, adenosine triphosphate (ATP) citrate lyase (Homo sapiens, UniProt P53396)
T1 sequence (P53396 1-1101): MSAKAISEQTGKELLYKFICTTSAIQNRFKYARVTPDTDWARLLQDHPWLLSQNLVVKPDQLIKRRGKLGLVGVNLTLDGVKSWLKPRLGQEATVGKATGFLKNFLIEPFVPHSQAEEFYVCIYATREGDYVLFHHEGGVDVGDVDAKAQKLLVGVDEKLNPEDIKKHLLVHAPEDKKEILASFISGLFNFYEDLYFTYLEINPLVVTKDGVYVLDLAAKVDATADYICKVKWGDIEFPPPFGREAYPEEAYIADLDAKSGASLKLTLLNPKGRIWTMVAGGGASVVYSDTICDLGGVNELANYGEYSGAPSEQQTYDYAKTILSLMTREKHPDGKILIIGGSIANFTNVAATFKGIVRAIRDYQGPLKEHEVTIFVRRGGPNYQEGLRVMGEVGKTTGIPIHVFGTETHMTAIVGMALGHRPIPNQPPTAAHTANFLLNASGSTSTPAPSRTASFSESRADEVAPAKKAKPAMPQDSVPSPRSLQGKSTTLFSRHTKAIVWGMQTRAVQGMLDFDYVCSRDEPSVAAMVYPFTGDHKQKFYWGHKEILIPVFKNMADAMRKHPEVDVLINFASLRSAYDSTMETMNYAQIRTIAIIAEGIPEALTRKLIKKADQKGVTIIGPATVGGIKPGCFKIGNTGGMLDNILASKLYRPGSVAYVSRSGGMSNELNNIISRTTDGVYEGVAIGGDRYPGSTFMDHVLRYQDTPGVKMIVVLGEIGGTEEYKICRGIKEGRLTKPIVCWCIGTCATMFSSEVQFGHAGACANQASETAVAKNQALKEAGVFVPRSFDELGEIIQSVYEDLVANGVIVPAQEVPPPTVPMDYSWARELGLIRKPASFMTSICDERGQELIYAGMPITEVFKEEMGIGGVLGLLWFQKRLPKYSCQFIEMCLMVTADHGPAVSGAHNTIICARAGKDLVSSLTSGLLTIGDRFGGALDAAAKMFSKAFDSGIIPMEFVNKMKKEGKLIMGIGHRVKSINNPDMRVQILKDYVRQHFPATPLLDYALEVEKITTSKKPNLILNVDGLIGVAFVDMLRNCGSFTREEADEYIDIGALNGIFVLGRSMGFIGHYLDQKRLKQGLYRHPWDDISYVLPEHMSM

T2DM patients [3] = conditions: 200 μg twice daily, three weeks
humans [4] = conditions: in vivo
[5] = system: timed-pregnant Sprague-Dawley rats; conditions: rat, in vivo
rats = conditions: rat, in vivo
[6] = system: diabetes mellitus patients
T2DM subjects = conditions: 600 mg twice daily, 4 weeks
T2DM patients [7] = conditions: 12 weeks, compared to placebo control
[8] = with food

Question: Which “decreased body mass index (BMI)” value (humans [1]; 2.8 g) does the source give for O=C(O)CC(O)(C(=O)O)C(O)C(=O)O (single isomer, unassigned; (-)) [(−)-HCA, (−)-hydroxycitric acid] here?
Answer: Its value is −5 to −6%.

Question: What about the decreased body weight (humans [1]; 2.8 g) of the same compound?
Answer: Its decreased body weight is −5 to −6%.

Question: What about the “decreased low density lipoprotein (LDL)” value (humans [1]; 2.8 g) of the same compound?
Answer: The value was −13.2%.

Question: And the “decreased total cholesterol (TC)” value (humans [1]; 2.8 g)?
Answer: Its value is −7.2%.

Question: And the “increased high density lipoprotein (HDL)” value (humans [1]; 2.8 g)?
Answer: The value was “+7.3%”.

Question: What about the “urine level of acetaldehyde” value (humans [1]; end of study) of the same compound?
Answer: Its value is “+83.1%”.

Question: What about the “urine level of acetone” value (humans [1]; end of study) of the same compound?
Answer: Its value is “+35.6%”.

Question: What about the “urine level of formaldehyde” value (humans [1]; end of study) of the same compound?
Answer: Its value is “+106.4%”.

Question: What about the “urine level of malondialdehyde” value (humans [1]; end of study) of the same compound?
Answer: The value was “+88.4%”.

Question: And the “inhibition of ATP citrate lyase” value [2]?
Answer: Its value is “potent inhibitor”.

Question: Which reduction in triglycerides (T2DM patients [3]; compared to baseline) does the source give for [Cr] [chromium] here?
Answer: Its reduction in triglycerides is −10.5%.

Question: And the reduction in glucose (T2DM patients [3]; compared to baseline, p<0.001)?
Answer: Its reduction in glucose is −21%.

Question: And the reduction in cholesterol (T2DM patients [3]; compared to baseline, p<0.02)?
Answer: The reduction in cholesterol was −9.4%.

Question: What about the “glycated hemoglobin (HbA1C)” value (T2DM patients [3]; from 8.2% at baseline, p<0.01) of the same compound?
Answer: The value was 7.6%.

Question: Which individuals developing asthma (humans [4]) does the source give for CCN(CC)CCO [diethylethanolamine] here?
Answer: The individuals developing asthma was 0.6%.

Question: And the “reduction of body weight” value [5]?
Answer: The value was 9.5%.

Question: And the “reduction of weight gain” value [5]?
Answer: The value was 48%.

Question: And the “findings in respiratory epithelium of the anterior nasal turbinate” value (rats)?
Answer: Its value is “inflammatory cell infiltration, focal hyperplasia, and squamous metaplasia”.

Question: What does the source list for O=C(O)CCCCC1CCSS1 (stereo not drawn) [α-LA, α-lipoic acid]?
Answer: decrease of levels of peroxides [6]: 34%; increases in glucose disposal (T2DM subjects; lean T2DM subjects compared to lean controls): 50%; increases in glucose disposal (T2DM subjects; obese T2DM subjects compared to obese controls): 42%

Question: With chromium picolinate [CrPic] as the compound, how does the insulin level (T2DM patients [7]) read?
Answer: The insulin level was “significant decrease”.

Question: What about the “improvement in fasting glucose” value (T2DM patients [7]; p<0.001) of the same compound?
Answer: Its value is 0.44 mM.

Question: What about the “improvement in post-prandial serum glucose” value (T2DM patients [7]; p<0.001) of the same compound?
Answer: Its value is 1.97 mM.

Question: Which “decreased LDL” value [8] does the source give for konjac mannan here?
Answer: The value was −23%.

Question: And the “decreased TC” value [8]?
Answer: The value was −12.7%.

Question: What about the “generalized loss of weight” value ([8]; average) of the same compound?
Answer: The value was 2.75 kg.

Question: And the “reduced fasting and postprandial levels of glucose” value ([8]; on average)?
Answer: Its value is −22%.
